How the values were obtained:
carcinoid tumor cells = details: cited from earlier work
[1] = test system: BON human GI carcinoid cancer cells; assay: Western blot analysis of GI carcinoid cells; assay type: cell-based
Experimental: Cell Culture BON human GI carcinoid cancer cells, kindly provided by Drs. B. Mark Evers and Courtney M. Townsend, Jr.
Total protein concentrations were quantified with a bicinchoninic acid assay kit (Pierce Biotechnology, Rockford, Ill., USA). Denatured cellular extracts were resolved by SDS-PAGE, transferred to nitrocellulose membranes (Schleicher and Schuell, Keene, N.H., USA), blocked in milk, and incubated with appropriate antibodies. The antibody dilutions were: 1:1,000 for Notch1 (Santa Cruz Biotechnology, Santa Cruz, Calif., USA), mammalian achaete-scute homolog 1 (ASCL1; BD Biosciences, San Diego, Calif., USA), chromogranin A (Zymed Laboratories, San Francisco, Calif., USA), and cyclin D1 (Cell Signaling Technology, Danvers, Mass., USA), 1:2,000 for p21 (Cell Signaling Technology) and p27 (Santa Cruz Biotechnology), and 1:10,000 for glyceraldehyde-3-phosphate dehydrogenase (G3PDH; Trevigen, Gaithersburg, Md., USA). Horseradish peroxidase conjugated goat anti-rabbit or goat anti-mouse secondary antibodies (Pierce Biotechnology) were used depending on the source of the primary antibody. For visualization of the protein signal, Immunstar (Bio-Rad Laboratories, Hercules, Calif., USA) or SuperSignal West Femto (Pierce Biotechnology) kits were used per the manufacturer's instructions.
Cell Culture BON human gastrointestinal (GI) carcinoid tumor cells, kindly provided by Drs. B. Mark Evers and Courtney M. Townsend, Jr.
Total protein concentrations were quantified with a bicinchoninic acid assay kit (Pierce Biotechnology, Rockford, Ill.). Denatured cellular extracts were resolved by SDS-PAGE, transferred onto nitrocellulose membranes (Schleicher and Schuell, Keene, N H), blocked in milk, and incubated with appropriate antibodies. The antibody dilutions were: 1:1,000 for Notch1 (Santa Cruz Biotechnology, Santa Cruz, Calif.), mammalian achaete-scute homolog 1 (ASCL1; BD Biosciences, San Diego, Calif.), chromogranin A (Zymed Laboratories, San Francisco, Calif.), and cyclin D1 (Cell Signaling Technology, Danvers, Mass.), 1:2,000 for p21 (Cell Signaling Technology) and p27 (Santa Cruz Biotechnology), and 1:10,000 for glyceraldehyde-3-phosphate dehydrogenase (G3PDH; Trevigen, Gaithersburg, Md.). Horseradish peroxidase conjugated goat anti-rabbit or goat anti-mouse secondary antibodies (Pierce Biotechnology) were used depending on the source of the primary antibody. For visualization of the protein signal, Immunstar (Bio-Rad Laboratories, Hercules, Calif.) or SuperSignal West Femto (Pierce Biotechnology) kits were used per the manufacturer's instructions.

[2] = test system: H727 human lung carcinoid cancer cells; assay: Western blot analysis of pulmonary carcinoid cells; assay type: cell-based
hASH1 = details: small cell lung cancer cells; cited from earlier work
Human MTC TT cells [3] = assay: MTT cell viability assay, medullary thyroid cancer cells; assay type: cell-based; details: concentrations up to 25 μM
Experimental: (§1) Human MTC TT cells were treated with SBHA in concentrations up to 25 μM and analyzed by Western blotting for evidence of Notch1 pathway activation and changes in neuroendocrine markers. MTT assay was used to measure cell viability. Finally mechanism of growth inhibition was analyzed by Western blotting.

Human MTC TT cells [4] = assay: Western blotting of medullary thyroid cancer cells; assay type: cell-based; details: concentrations up to 25 μM
Experimental: as §1

[5] = test system: BON human GI carcinoid cancer cells; assay: MTT cell proliferation assay, GI carcinoid cells; assay type: cell-based
Text: (§2) Cell Culture BON human GI carcinoid cancer cells, kindly provided by Drs. B. Mark Evers and Courtney M. Townsend, Jr. (University of Texas Medical Branch, Galveston, Tex., USA), and H727 human lung carcinoid cancer cells (American Type Tissue Collection, Manassas, Va., USA) were maintained as previously described (Sippel, R S et al., Raf-1 Activation Suppresses neuroendocrine marker and hormone levels in human gastrointestinal carcinoid cells. Am J Physiol Gastrointest Liver Physiol. 2003 August; 285(2):G245-54, Van Gompel J J et al., ZM336372, A Raf-1 Activator, Suppresses Growth and Neuroendocrine Hormone Levels in Carcinoid Tumor Cells. Mol Cancer Ther. 2005 June; 4(6):910-7)
(§3) Cell Proliferation Assay Carcinoid cancer cell proliferation was measured by the MTT (thiazolyl blue tetrazolium bromide; Sigma-Aldrich, St. Louis, Mo., USA) rapid calorimetric assay as previously described (Van Gompel J J et al., ZM336372, A Raf-1 Activator, Suppresses Growth and Neuroendocrine Hormone Levels in Carcinoid Tumor Cells. Mol Cancer Ther. 2005 June; 4(6):910-7). Briefly, cells were seeded in quadruplicate on 24-well plates and incubated for 24 hours to allow cell attachment. The cells were then treated with SBHA (Sigma-Aldrich) in concentrations of 0 to 50 μM and incubated for up to 6 days. The MTT assay was performed by replacing the standard medium with 250 μL of serum-free medium containing MTT (0.5 mg/mL) and incubated at 37° C. for 3 hours. After incubation, 750 μL of dimethyl sulfoxide (Sigma-Aldrich) was added to each well and mixed thoroughly. The plates were then measured at 540 nm using a spectrophotometer (μQuant; Bio-Tek Instruments, Winooski, Vt., USA).
Cell Culture BON human gastrointestinal (GI) carcinoid tumor cells, kindly provided by Drs. B. Mark Evers and Courtney M. Townsend, Jr. […]
(§4) Cell Proliferation Assay Carcinoid tumor cell proliferation was measured by the MTT (methylthiazolyldiphenyl-tetrazolium bromide; Sigma-Aldrich, St. Louis, Mo.) rapid colorimetric assay as previously described (Van Gompel J J et al., ZM336372, A Raf-1 Activator, Suppresses Growth and Neuroendocrine Hormone Levels in Carcinoid Tumor Cells. Mol Cancer Ther 2005; 4:910-917). […] The plates were then measured at 540 nm using a spectrophotometer (μQuant; Bio-Tek Instruments, Winooski, Vt.).

[6] = test system: H727 human lung carcinoid cancer cells; assay: MTT cell proliferation assay, pulmonary carcinoid cells; assay type: cell-based; details: up to 6 days
Text: as §2
as §3, with “After incubation, 750 μL of dimethyl sulfoxide (Sigma-Aldrich) was added to each well and mixed thoroughly.” left out, “USA). […]” for “USA).”
as §4

MEK = MEK inhibitors and Notch1-mediated hormone suppression; assay type: cell-based, human; details: PD098059 25-50 uM or U0126 5-20 uM pre-treatment
Experimental: 1) MEK inhibitors. BON, BON-Notch1, H727, H727-Notch1, TT, and TT-Notch1 cells are pre-treated with either PD098059 (25-50 uM) or U0126 (5-20 uM) (both well-characterized MEK inhibitors) (Sippel R S, et al., Am J Physiol Gastrointest Liver Physiol 2003; 285:G245-G254; Sippel R S, et al., Surgery 2003; 134:866-871), alone or in combination, followed by addition of control or doxycycline (1 μg) for 24, 48, and 96 hours. Cells are then analyzed with the following methods.
2) Confirmation of MEK inhibition. To confirm MEK inhibition after treatment with PD098059 and U0126, cellular extracts are analyzed by Western blots utilizing antibodies against MEK, phospho-MEK, ERK1/2, and phospho-ERK1/2. MAPK in vitro kinase assay with a commercially available kit (Cell Signal Technology) is used to confirm blockade of MEK activity.
3) hASH1 and NE marker expression. To determine if MEK inhibition blocks Notch1-mediated NE marker suppression, cellular extracts are analyzed using western blots with hASH1, chromogranin A, synaptophysin, and neuron-specific enolase, and serotonin or calcionin secretion will be assessed using an ELISA assay, as described above.

Notch1 = assay: CBF1 binding site luciferase reporter assay; assay type: cell-based, human; details: DAPT 50 μM pretreatment 45 minutes, then 4 mM VPA
Experimental: Luciferase Reporter Assays GI carcinoid tumor cells were transiently transfected with luciferase constructs as previously described (Kunnimalaiyaan, M. et al., Conservation of the Notch1 signaling pathway in gastrointestinal carcinoid cells A J Physiol Gastrointest Liver Physiol 2005; 289:G636-642). Wild-type (4xwtCBF1Luc; 2 μg) or mutant (4xmutCBF1Luc; 2 μg) CBF1-luciferase reporter plasmids were co-transfected with CMV-β-gal (0.5 μg) (Hsieh J J et al., Truncated Mammalian Notch1 Activates CBF1/RBPJk-Repressed Genes by a Mechanism Resembling That of Epstein-Barr Virus EBNA2. Mol Cell Biol 1996; 16:952-959). In experiments with the γ-secretase inhibitor, N-[N-(3,5-difluorophenacetyl)-L-alanyl]-S-phenylglycine t-butyl ester (DAPT; EMD Biosciences, Darmstadt, Germany), to inhibit Notch1 cleavage and activation, cells were pretreated for 45 minutes with DAPT (50 μM) then treated with 4 mM VPA. […] Luciferase levels were measured using a Monolight 2010 Luminometer (Analytical Luminescence Laboratory, San Diego, Calif.). […]

In the case of `CC(/C=C/C(=O)NO)=C\[C@@H](C)C(=O)c1ccc(N(C)C)cc1` [trichostatin A], the “cyclin D1” value (carcinoid tumor cells) is given as “concomitant downregulation” and the “p21 and p27” value (carcinoid tumor cells) is given as “increase”.

In the case of `O=C(CCCCCCC(=O)Nc1ccccc1)NO` [SAHA, suberoylanilide hydroxamic acid], the ASCL1 protein ([1]; 30 μM, 2 days) is reported as “undetectable level”, the ASCL1 protein ([1]; SBHA/SAHA treatment, 48 hours) is reported as “dose-dependent decrease” and the “chromogranin A level” value ([1]; SBHA/SAHA, 2 days of treatment) is reported as “only modest inhibition”. The “chromogranin A level” value ([2]; 50 μM, 2 days) was “complete suppression”, the “concentrations at which significant Notch1 induction was seen” value ([2]; 48 hours) was 20 to 30 µM and the ASCL1 protein ([2]; SBHA/SAHA treatment, 48 hours) was “dose-dependent decrease”.

For “c5p1476: hASH1 anti-sense oligonucleotide 5′-GGAGCCCACUGCUUU-3′ (SEQ ID NO: 1), directed at the hASH1 3′UTR (listed as RNA, chemistry not given here)”, the hASH1 expression (hASH1) is given as “very potent inhibitor”.

For “c5pMiss2: missense oligonucleotide 5′-CACUGAUGCACCUGU-3′ (SEQ ID NO: 4) (listed as RNA, chemistry not given here)”, the hASH1 expression (hASH1) is listed as “no affect”.

With `O=C(CCCCCCC(=O)NO)NO` [SBHA, suberic bishydroxamic acid] the cell viability (Human MTC TT cells [3]) was “dose-dependant decrease”, the ASCL1 (Human MTC TT cells [4]) was “concomitant decrease” and the “active form of Notch1” value (Human MTC TT cells [4]) was “dose-dependent induction”. For the same molecule, the “chromogranin A” value (Human MTC TT cells [4]) was “decrease”, the “cleaved poly ADP-ribose polymerase (PARP) and caspase-3” value (Human MTC TT cells [4]) was “increase in protein levels” and the cell proliferation ([5]; SBHA 0 to 50 μM, up to 6 days) was “profound dose-dependent inhibition”. The “concentration giving significant growth inhibition” value ([5]; after 4 days of exposure) was 5 µM, the “concentration resulting in induction of full-length Notch1 and Notch1 intracellular domain (NICD)” value ([1]; 48 hours, concentrations as low as) was 5 µM and the “levels of cyclin D1” value ([1]; SBHA, 48 hours) was “decreased levels”. The “levels of cyclin-dependent kinase inhibitors p21 and p27” value ([1]; SBHA, 48 hours) was “increased levels”, the “levels of cyclin D1” value ([2]; SBHA, 48 hours) was “decreased levels” and the “levels of cyclin-dependent kinase inhibitors p21 and p27” value ([2]; SBHA, 48 hours) was “increased levels”. For the same molecule, the cell growth ([6]; SBHA 0 to 50 μM) was “dose-dependent growth suppression” and the “concentrations that produced growth inhibition” value [6] was 20 to 50 µM.

In the case of “c5p25: hASH1 anti-sense oligonucleotide 5′-UCCUACUAAGGCUGC-3′ (SEQ ID NO: 2) (listed as RNA, chemistry not given here)”, the hASH1 expression (hASH1) is given as “minimal hASH1 inhibitory activity”.

For `CCCC(=O)[O-].[Na+]` [sodium butyrate], the “cyclin D1” value (carcinoid tumor cells) is given as “concomitant downregulation” and the “p21 and p27” value (carcinoid tumor cells) is given as “increase”.

In the case of `COc1cccc(-c2cc(=O)c3ccccc3o2)c1N` [PD098059], the Notch1-mediated hormone suppression (MEK) is reported as “block”.

In the case of “c5pMiss1: missense oligonucleotide 5′-GCUACAUCUGGUCGC-3′ (SEQ ID NO: 3) (listed as RNA, chemistry not given here)”, the hASH1 expression (hASH1) is listed as “no affect”.

For `N#CC(=C(/N)Sc1ccccc1N)/C(C#N)=C(\N)Sc1ccccc1N` [U0126], the Notch1-mediated hormone suppression (MEK) was “block”.

For `C[C@H](NC(=O)Cc1cc(F)cc(F)c1)C(=O)N[C@H](C(=O)OC(C)(C)C)c1ccccc1` [DAPT, N-[N-(3,5-difluorophenacetyl)-L-alanyl]-S-phenylglycine t-butyl ester], the “effect of VPA on CBF1 binding” value (Notch1) was “blocked the effect of VPA on CBF1 binding”.
